Tests used:
FPRL1 [1] = target: T1, FPRL1 (Homo sapiens, UniProt P25090); assay: FPRL1 internalization in FPRL1/293 cells, fluorescence confocal microscopy; assay type: cell-based
T1 construct: expressed in transfected cells; host or cells: HEK 293
T1 sequence (P25090 1-351): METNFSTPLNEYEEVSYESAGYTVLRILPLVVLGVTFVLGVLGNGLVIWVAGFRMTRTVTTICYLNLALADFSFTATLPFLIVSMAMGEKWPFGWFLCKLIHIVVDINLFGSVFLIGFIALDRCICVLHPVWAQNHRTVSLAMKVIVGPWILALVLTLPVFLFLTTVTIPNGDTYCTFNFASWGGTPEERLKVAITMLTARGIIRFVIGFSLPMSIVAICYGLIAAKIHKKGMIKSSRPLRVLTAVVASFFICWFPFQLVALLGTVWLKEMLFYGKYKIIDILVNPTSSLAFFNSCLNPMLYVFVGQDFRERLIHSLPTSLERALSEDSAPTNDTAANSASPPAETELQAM
Experimental: (§1) Human peripheral blood monocytes (PBM) were isolated from Buffy coats (Transfusion Medicine Department, NIH Clinical Center, Bethesda, Md.) by using iso-osmotic Percoll gradient. The purity of cell preparations by morphology was >90%. PBM were further differentiated to macrophages by culturing the cells in RPMI 1640 medium containing 0.1% bovine serum albumin, 0.01M HEPES (pH 7.4), and 20 ng/ml monocyte colony stimulating factor (MCSF, Pepro Tech, Rocky Hill, N.J.). The cells were plated on 4-well chamber slides (Nalge Nunc International, Rochester, N.Y.) at a density of 1×10^5 cells/well. HEK293 cells genetically engineered to express FPRL1 cDNA (FPRL1/293 cells) were kindly provided by Dr. P. M. Murphy (National Institute of Allergy and Infectious Diseases, NIH). FPRL1/293 cells were suspended in DMEM supplemented with 10% FBS (Hyclone, Logan, Utah), 1 mM glutamine (Gibco-BRL, Grand Island, N.Y.), and 800 μg/ml geneticin (G418, Gibco-BRL). The cells were also plated on 4-well chamber slides at a density of 2×10^5 cells/well.
Fluorescence confocal microscope. Human macrophages or FPRL1/293 cells grown on chamber slides were treated with FPRL1 agonists for different periods at 37° C. The cells were fixed in 4% paraformaldehyde for 10 min at room temperature. Slides were washed with PBS and incubated with 5% normal goat serum (Sigma) in PBS, 0.05% Tween-20 (PBS-T-NGS), for 1 h to block nonspecific binding sites and for permeabilization. The anti-Aβ42 and anti-FPRL1 antibodies were applied and the slides were incubated for 1 h at room temperature. […] The slides were mounted with an anti-fade, water-based mounting medium with 4,6-diamidino-2-phenylindole (DAPI; Vector Lab, Burlingame, Calif.) and analyzed under a laser scanning confocal fluorescence microscope (Leica TCS-4D DMIRBE, Heidelberg, Germany). Excitation wavelengths of 365 (for DAPI), 488 (for FITC), and 568 (for rhodamine) nm were used to generate fluorescence emission in blue, green, and red respectively. […]

macrophages [2] = assay: Apoptosis of macrophages (annexin-V-FITC/PI flow cytometry); assay type: cell-based, human; settings: 48 h; 10 μM Aβ42 or 1 μM W pep
Experimental: (§2) Detection of apoptosis. Apoptotic cells were detected by double labeling with annexin-V-FITC and propidium iodide (P1). Annexin-V binds to phosphatidylserine residues, which are translocated from the inner to the outer leaflet of the plasma membrane during the early stages of apoptosis (Koopman G. et al. 1994 Blood 84:1415-1420; Martin S. J. et al. 1995 J Exp Med 182:1545-1556). Necrotic cells were distinguished from annexin-V-positive cells by counterstaining with PI (final concentration 1 μg/ml) (Heidenreich S. et al. 1997 J Immunol 159:3178-3188; Mangan D. F. et al. 1991 J Immunol 146:1541-1546. Apoptotic cells were labeled by using an annexin-V kit according to manufacturer's instructions (Santa Cruz Biotechnology, Santa Cruz, Calif.) and analyzed by flow cytometry.

FPRL1/293 cells = assay: Apoptosis of FPRL1/293 cells (annexin-V-FITC/PI flow cytometry); assay type: cell-based, human; settings: 48 h; 10 μM Aβ42 or 1 μM W pep
Experimental: as §2

macrophages [3] = assay: Congo red histochemistry of macrophages (fibril formation); assay type: cell-based, human
Experimental: Congo red histochemistry. Cells on chamber slides were fixed with 4% paraformaldehyde and stained with hematoxylin for 2 min at room temperature. After 20 min incubation in a saturated NaCl solution containing 80% ethanol and 0.1% NaOH, the slides were reacted for 20 min with 0.2% Congo red. Destaining and dehydration were completed by washing the slides sequentially in 95% ethanol and 100% ethanol, followed by xylene. Coverslips were applied using Permount and the slides were viewed under light microscopy.

human monocytes [4] = assay: Chemotaxis (migration) of human monocytes, 48-well chamber; assay type: cell-based
Description: (§3) Reagents and cells. Aβ peptide (Aβ42) and the peptide with reversed sequence (Aβ42-1) were purchased from California Peptide Research (Napa, Calif.). All peptides were examined for endotoxin contamination and were negative at highest concentrations used in the study. Human peripheral blood monocytes were isolated from buffy coats (National Institutes of Health Clinical Center, Bethesda, Md.) enriched for mononuclear cells by using iso-osmotic Percoll gradient. The purity of the cell preparations was examined by morphology and was >90%. Rat basophilic leukemia cell line (RBL-2H3) transfected with epitope-tagged N-formylpeptide receptor (FPR) (designated ETFR) was a kind gift of Dr. R. Snyderman (Duke University, Durham, N.C.). cDNA cloning and establishment of FPRL1-transfected human embryonic kidney (HEK) 293 cells (FPRL1/293) were described previously (Gao J. L. & Murphy P. M. 1993 J Biol Chem 268:[…]). All the transfected cells were maintained in culture media as described (Su S. B. et al. 1999 J Exp Med 189:395-402).
(§4) Chemotaxis assays and measurement of calcium mobilization. Chemotaxis assays were performed using 48-well chemotaxis chambers (Deng X. et al. 1999 Blood 94:1165-1673). The results were expressed as the mean number (±SD) of migrated cells in three high-powered fields in three replicate samples. Chemotaxis index, which represented the fold increase in the number of cells migrated in response to chemoattractants over the cell response to control medium, also was used. Ca^+ mobilization was measured by stimulating fura-2 AM-loaded human monocytes or receptor-transfected cells with various agents (Deng X. et al. 1999 Blood 94:1165-1673; Su S. B. et al. 1999 J Exp Med 189:395-402) and recording the ratio of fluorescence at 340 and 380 nm in a luminescence spectrometer with FL WinLab program (Perkin-Elmer, Beaconsfield, UK).

FPRL1 [5] = target: T1, FPRL1; assay: Chemotaxis of FPRL1/293 cells; assay type: cell-based
Description: (§5) Reagents and cells. Aβ peptide (Aβ42) and the peptide with reversed sequence (Aβ42-1) were purchased from California Peptide Research (Napa, Calif.). All peptides were examined for endotoxin contamination and were negative at highest concentrations used in the study. Human peripheral blood monocytes were isolated from buffy coats (National Institutes of Health Clinical Center, Bethesda, Md.) enriched for mononuclear cells by using iso-osmotic Percoll gradient. The purity of the cell preparations was examined by morphology and was >90%. […]
(§6) Chemotaxis assays and measurement of calcium mobilization. […] The results were expressed as the mean number (±SD) of migrated cells in three high-powered fields in three replicate samples. […] Ca^+ mobilization was measured by stimulating fura-2 AM-loaded human monocytes or receptor-transfected cells with various agents (Deng X. et al. 1999 Blood 94:1165-1673; Su S. B. et al. 1999 J Exp Med 189:395-402) and recording the ratio of fluorescence at 340 and 380 nm in a luminescence spectrometer with FL WinLab program (Perkin-Elmer, Beaconsfield, UK).

FPRL1 [6] = target: T1, FPRL1; assay: Aβ42/FPRL1 internalization in human macrophages, fluorescence confocal microscopy; assay type: cell-based; settings: 30 min incubation at 37° C.
Experimental: as §1, with “FPRL1/293 cells were suspended in DMEM supplemented with 10% FBS (Hyclone, Logan, Utah), 1 mM glutamine (Gibco-BRL, Grand Island, N.Y.), and 800 μg/ml geneticin (G418, Gibco-BRL). The cells were also plated on 4-well chamber slides at a density of 2×10^5 cells/well.” left out
Fluorescence confocal microscope. […] The slides were mounted with an anti-fade, water-based mounting medium with 4,6-diamidino-2-phenylindole (DAPI; Vector Lab, Burlingame, Calif.) and analyzed under a laser scanning confocal fluorescence microscope (Leica TCS-4D DMIRBE, Heidelberg, Germany). Excitation wavelengths of 365 (for DAPI), 488 (for FITC), and 568 (for rhodamine) nm were used to generate fluorescence emission in blue, green, and red respectively. […]

human monocytes [7] = assay: Ca2+ mobilization in fura-2 loaded human monocytes; assay type: cell-based
Description: as §3, §4

FPRL1 [8] = target: T1, FPRL1; assay: Ca2+ mobilization in FPRL1/293 cells; assay type: cell-based
Description: as §5, §6

FPR = target: T2, FPR (Homo sapiens, UniProt P21462); assay: Ca2+ mobilization in ETFR cells (RBL-2H3 transfected with epitope-tagged FPR); assay type: cell-based
T2 construct: expressed in transfected cells; host or cells: RBL-2H3 (rat basophilic leukemia)
T2 sequence (P21462 1-350): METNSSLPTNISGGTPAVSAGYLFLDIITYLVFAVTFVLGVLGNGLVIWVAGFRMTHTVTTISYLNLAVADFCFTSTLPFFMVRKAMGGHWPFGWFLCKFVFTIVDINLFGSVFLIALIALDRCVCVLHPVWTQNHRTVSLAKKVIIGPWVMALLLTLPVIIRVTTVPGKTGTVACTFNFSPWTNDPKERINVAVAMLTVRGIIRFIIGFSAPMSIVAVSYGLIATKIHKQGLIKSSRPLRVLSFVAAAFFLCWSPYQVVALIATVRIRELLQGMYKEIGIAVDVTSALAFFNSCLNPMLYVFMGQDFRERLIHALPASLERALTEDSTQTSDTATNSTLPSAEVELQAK
Description: as §5, §6

mouse neutrophils [9] = assay: Superoxide production in mouse neutrophils (Diogenes chemiluminescence); assay type: cell-based
Experimental: The cell population was consistently composed of >90% neutrophils, as determined by light microscopy of DiffQuick-stained cytospins. Thus, hereafter we will refer to this cell preparation as neutrophils. Superoxide Production. […] Then a mixture of the superoxide-specific chemiluminescence indicator reagent Diogenes (National Diagnostics, Atlanta, Ga.) was added to the cells (50% of total reaction volume) with appropriate stimuli or vehicle control, and superoxide dismutase-inhibitable chemiluminescence was measured in a luminometer (Labsystems Luminoskan; Helsinki, Finland). […] For sequential stimulation experiments, 5×10^4 FPR −/− neutrophils were distributed into microcentrifuge tubes, and test substances were added. The mixture was then immediately transferred to a chemiluminescence plate. After incubation at 37° C. for 8 min (when fMLF was the first stimulus) or 9 min (when Aβ was the first stimulus), Diogenes reagent plus the final stimulus was added, and the activity was monitored for 10 min. […] Each condition was tested in triplicate, and the mean of the mean number (grand mean) of superoxide dismutase-inhibitable relative light units throughout the duration of the assay and the corresponding standard errors of grand means were calculated. […]

mouse neutrophils [10] = settings: neutrophils from wild type mice, cited from earlier work
[11] = target: mouse N-formylpeptide receptor 2 (FPR2), on transfected HEK 293 cells or endogenous on mouse neutrophils and N9 microglial cells (mouse) (UniProt O88536); assay: cell-based or functional assay
mouse N-formylpeptide receptor 2 (FPR2), on transfected HEK 293 cells or endogenous on mouse neutrophils and N9 microglial cells (mouse), sequence (O88536 whole entry): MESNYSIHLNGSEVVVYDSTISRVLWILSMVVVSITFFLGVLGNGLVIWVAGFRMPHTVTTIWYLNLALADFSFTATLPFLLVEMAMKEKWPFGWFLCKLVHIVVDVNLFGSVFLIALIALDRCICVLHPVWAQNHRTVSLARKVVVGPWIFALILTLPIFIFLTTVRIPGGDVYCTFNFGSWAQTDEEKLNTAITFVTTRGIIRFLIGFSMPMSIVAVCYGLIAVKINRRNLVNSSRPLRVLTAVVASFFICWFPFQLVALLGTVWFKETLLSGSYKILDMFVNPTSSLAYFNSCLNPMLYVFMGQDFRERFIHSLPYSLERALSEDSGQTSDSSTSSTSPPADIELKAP

WKYMVm [W pep]
time to maximal FPRL1 internalization (FPRL1 [1]; 37° C.): 15 to 30 min
time until FPRL1 is back on the cell surface after removal of agonist (receptor recycling) (FPRL1 [1]; agonist removed after 30 min): 2 h
apoptosis (macrophages [2]): did not increase the apoptosis
apoptosis (FPRL1/293 cells): did not increase the apoptosis
Congo red positive fibrils (macrophages [3]; incubation 24 h to 48 h): did not form Congo red positive fibrils

COc1cc2c(c(OC)c1OC)-c1ccc(OC)c(=O)cc1[C@@H](NC(C)=O)CC2 [colchicine]
inhibition of Aβ42-induced chemotaxis (human monocytes [4]; monocytes): potent inhibitor of Aβ42-induced chemotaxis
inhibition of Aβ42-induced chemotaxis (FPRL1 [5]): potent inhibitor of Aβ42-induced chemotaxis
effect on internalization of Aβ42/FPRL1 complexes (FPRL1 [1]; 30 min incubation at 37° C.): failed to internalize
effect on internalization of Aβ42/FPRL1 complexes (FPRL1 [6]): failed to internalize
effect on Congo red staining of macrophages incubated with Aβ42 (macrophages [3]; 48 h incubation with Aβ42): not significantly stained with Congo red

Aβ42 “aged”: Aβ42 aged at 37° C., tested as the aggregated form
induction of monocyte migration (human monocytes [4]): lower potency than freshly dissolved peptide

GlyBSA: Glycated bovine albumin, a reported ligand for RAGE
Ca2+ mobilization in human monocytes (human monocytes [7]): potent inducer of Ca^2+ mobilization
effect of prior stimulation on subsequent Ca2+ flux response of monocytes to Aβ42 (desensitization) (human monocytes [7]): able to cross-desensitize the cell response to Aβ42
Ca2+ mobilization in FPRL1/293 cells (FPRL1 [8]): stimulated Ca^2+ mobilization
Ca2+ mobilization in ETFR cells (FPR): stimulated Ca^2+ mobilization

CSCC[C@H](NC=O)C(=O)N[C@@H](CC(C)C)C(=O)N[C@@H](Cc1ccccc1)C(=O)O [fMLF, formyl-methionyl-leucyl-phenylalanine]
effect of prior stimulation on subsequent Ca2+ flux response of monocytes to Aβ42 (desensitization) (human monocytes [7]): clearly inhibited the subsequent Ca^2+ flux response to Aβ42
desensitization of Aβ42-induced Ca2+ flux in FPRL1/293 cells (FPRL1 [8]; prior stimulation): desensitized
difference of EC50 of superoxide generation, FPR −/− versus FPR+/+ neutrophils (mouse neutrophils [9]): 10 fold
effect of pretreatment on superoxide response to 10 μM Aβ (mouse neutrophils [9]; FPR −/− neutrophils, pretreated with 5 μM fMLF vs vehicle): markedly attenuated
optimum of second peak of chemotaxis dose-response curve (mouse neutrophils [10]): 10 µM
optimum of first peak of chemotaxis dose-response curve (mouse neutrophils [10]; peak due to FPR): ~500 nM

bacterial chemotactic peptide formyl-methionyl-leucyl-phenylalanine (fMLF)
superoxide generation in neutrophils, EC50 in FPR -/- against FPR +/+ cells [11]: 10 fold

fucoidan
Ca2+ mobilization in human monocytes (human monocytes [7]): did not induce Ca^2+ mobilization
effect of prior stimulation on subsequent Ca2+ flux response of monocytes to Aβ42 (desensitization) (human monocytes [7]): did not affect monocyte response to subsequent stimulation with Aβ42
